From patent US20120058997A1, “IMIDAZO[1,2-B]PYRIDAZINE AND PYRAZOLO[1,5-A]PYRIMIDINE DERIVATIVES AND THEIR USE AS PROTEIN KINASE INHIBITORS” (SuperGen, Inc., priority 2006, published 2012)

What follows are molecules tested against Pim-1 kinase (Homo sapiens, UniProt P11309) (assay: Promega Kinase-Glo Pim-1 kinase inhibition assay). Conditions: Table X; Kinase-Glo; read-out: IC50 on Pim1.
Assay type: biochemical
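Note: in vitro Pim-1 reaction run 2 h at 30 °C, then leftover ATP measured by luciferase luminescence, where signal falls as kinase activity rises.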

Sequence of Pim-1 kinase (P11309 whole entry): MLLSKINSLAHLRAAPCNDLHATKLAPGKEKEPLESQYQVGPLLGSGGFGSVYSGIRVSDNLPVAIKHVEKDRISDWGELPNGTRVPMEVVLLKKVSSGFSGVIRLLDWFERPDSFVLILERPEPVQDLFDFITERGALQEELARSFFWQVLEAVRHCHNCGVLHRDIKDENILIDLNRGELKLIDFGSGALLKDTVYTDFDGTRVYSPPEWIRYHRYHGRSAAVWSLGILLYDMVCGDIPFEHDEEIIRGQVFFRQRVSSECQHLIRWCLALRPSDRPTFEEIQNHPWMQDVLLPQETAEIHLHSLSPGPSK

SMILES | IC50 [nM]
CC(C)(O)[C@H]1CC[C@H](Nc2ccn3ncc(-c4cccc(C(F)(F)F)c4)c3n2)CC1 [Compound 8-56] | 10 to 100
CC(C)(O)[C@H]1CC[C@H](Nc2ccn3ncc(-c4cccc(Cl)c4)c3n2)CC1 [Compound 8-63] | 10 to 100
Clc1cccc(-c2cnc3ccc(NC4CCOCC4)nn23)c1 [Compound 8-39] | < 10
CO[C@H]1CC[C@H](Nc2ccn3ncc(-c4cccc(C(F)(F)F)c4)c3n2)CC1 [Compound 8-57, 4-(trans-Methoxycyclohexyl)-3-(3-(trifluoromethyl)phenyl)pyrazolo[1,5-a]pyrimidin-5-amine] | 10 to 100
O=S1(=O)CCC(CNc2ccc3ncc(-c4cccc(C(F)(F)F)c4)n3n2)CC1 [Compound 8-34, 4-(((3-(3-(Trifluoromethyl)phenyl)imidazo[1,2-b]pyridazin-6-yl)amino)methyl)tetrahydro-2H-thiopyran 1,1-dioxide] | 100 to 1000
O=S1(=O)CCN(c2ccn3ncc(-c4cccc(C(F)(F)F)c4)c3n2)CC1 [Compound 8-60] | 1000 to 5000
O=S1(=O)CCC(CNc2ccn3ncc(-c4cccc(OC(F)(F)F)c4)c3n2)CC1 [Compound 8-51, 4-(((3-(3-(Trifluoromethoxy)phenyl)pyrazolo[1,5-a]pyrimidin-5-yl)amino)methyl)tetrahydro-2H-thiopyran 1,1-dioxide] | 100 to 1000
C[C@]1(O)CC[C@H](Nc2ccn3ncc(-c4cccc(OC(F)(F)F)c4)c3n2)CC1 [Compound 8-48, 1-Methyl-4-((3-(3-(trifluoromethoxy)phenyl)pyrazolo[1,5-a]pyrimidin-5-yl)amino)-trans-cyclohexanol] | 100 to 1000
O=C(CN1CCOCC1)N1CCC(CNc2ccc3ncc(-c4cccc(OC(F)(F)F)c4)n3n2)CC1 [Compound 8-21, 2-Morpholino-1-(4-(((3-(3-(trifluoromethoxy)phenyl)imidazo[1,2-b]pyridazin-6-yl)amino)methyl)piperidin-1-yl)ethanone] | 10 to 100
Clc1cccc(-c2cnn3ccc(NC4CCOCC4)nc23)c1 [Compound 8-65] | 100 to 1000
O=S1(=O)CCC(CNc2ccn3ncc(-c4cccc(C(F)(F)F)c4)c3n2)CC1 [Compound 8-59] | 100 to 1000
FC(F)(F)c1cccc(-c2cnn3ccc(NC4CCOCC4)nc23)c1 [Compound 8-58, N-(Tetrahydro-2H-pyran-4-yl)-3-(3-(trifluoromethyl)phenyl)pyrazolo[1,5-a]pyrimidin-5-amine] | 100 to 1000
C[C@]1(O)CC[C@H](Nc2ccc3ncc(-c4cccc(Cl)c4)n3n2)CC1 [Compound 8-36, 4-((3-(3-Chlorophenyl)imidazo[1,2-b]pyridazin-6-yl)amino)-1-methyl-trans-cyclohexanol] | 100 to 1000
FC(F)(F)Oc1cccc(-c2cnn3ccc(NC4CCOCC4)nc23)c1 [Compound 8-50, N-(Tetrahydro-2H-pyran-4-yl)-3-(3-(trifluoromethoxy)phenyl)pyrazolo[1,5-a]pyrimidin-5-amine] | 100 to 1000
NCC1CCN(c2ccc3ncc(-c4cccc(OC(F)(F)F)c4)n3n2)C(=O)C1 (centres unmarked) [Compound 8-24, 4-(Aminomethyl)-1-(3-(3-(trifluoromethoxy)phenyl)imidazo[1,2-b]pyridazin-6-yl)piperidin-2-one] | 10 to 100
N[C@H]1CC[C@H](Nc2ccn3ncc(-c4cccc(OC(F)(F)F)c4)c3n2)CC1 [Compound 8-52, N-(3-(3-(Trifluoromethoxy)phenyl)pyrazolo[1,5-a]pyrimidin-5-yl)cyclohexane-1,4-trans-diamine] | < 10
O=S1(=O)CCN(c2ccc3ncc(-c4cccc(OC(F)(F)F)c4)n3n2)CC1 [Compound 8-15, 4-(3-(3-(Trifluoromethoxy)phenyl)imidazo[1,2-b]pyridazin-6-yl)thiomorpholine 1,1-dioxide] | 1000 to 5000
CN1CCC(CNc2ccn3ncc(-c4cccc(OC(F)(F)F)c4)c3n2)CC1 [Compound 8-67] | 10 to 100
C[C@]1(O)CC[C@H](Nc2ccn3ncc(-c4cccc(Cl)c4)c3n2)CC1 [Compound 8-62] | 100 to 1000

Other lines, results leading:

IC50 [nM] | SMILES
10 to 100 | O[C@@H]1CC[C@@H](Nc2ccc3ncc(-c4cccc(OC(F)(F)F)c4)n3n2)C1 [Compound 8-5, (1R,3R)3-((3-(3-(Trifluoromethoxy)phenyl)imidazo[1,2-b]pyridazin-6-yl)amino)cyclopentanol]
100 to 1000 | CC(C)(O)CCOc1ccc2ncc(-c3cccc(OC(F)(F)F)c3)n2n1 [Compound 8-41, 2-Methyl-4-((3-(3-(Trifluoromethoxy)phenyl)imidazo[1,2-b]pyridazin-6-yl)oxy)butan-2-ol]
100 to 1000 | O=S1(=O)CCC(CNc2ccc3ncc(-c4cccc(OC(F)(F)F)c4)n3n2)CC1 [Compound 8-13, 4-(((3-(3-(Trifluoromethoxy)phenyl)imidazo[1,2-b]pyridazin-6-yl)amino)methyl)tetrahydro-2H-thiopyran 1,1-dioxide]
10 to 100 | FC(F)(F)Oc1cccc(-c2cnc3ccc(NCC4CCOCC4)nn23)c1 [Compound 8-19, N-((tetrahydro-2H-pyran-4-yl)methyl)-3-(3-(trifluoromethoxy)phenyl)imidazo[1,2-b]pyridazin-6-amine]
10 to 100 | C[C@]1(O)CC[C@H](Nc2ccc3ncc(-c4cccc(C(F)(F)F)c4)n3n2)CC1 [Compound 8-30, 1-Methyl-4-((3-(3-(trifluoromethyl)phenyl)imidazo[1,2-b]pyridazin-6-yl)amino)-trans-cyclohexanol]
1000 to 5000 | O=C1CC(CNc2ccc3ncc(-c4cccc(OC(F)(F)F)c4)n3n2)CCN1 (centres unmarked) [Compound 8-23, 4-(((3-(3-(Trifluoromethoxy)phenyl)imidazo[1,2-b]pyridazin-6-yl)amino)methyl)piperidin-2-one]
10 to 100 | N[C@H]1CC[C@H](Nc2ccc3ncc(-c4cccc(Cl)c4)n3n2)CC1 [Compound 8-68]
10 to 100 | CC(C)(O)CCNc1ccc2ncc(-c3cccc(OC(F)(F)F)c3)n2n1 [Compound 8-3, 2-Methyl-4-((3-(3-(trifluoromethoxy)phenyl)imidazo[1,2-b]pyridazin-6-yl)amino)butan-2-ol]
10 to 100 | N[C@H]1CCCN(c2ccc3ncc(-c4cccc(OC(F)(F)F)c4)n3n2)C1 [Compound 8-25, (S)-1-(3-(3-(Trifluoromethoxy)phenyl)imidazo[1,2-b]pyridazin-6-yl)piperidin-3-amine]
10 to 100 | FC(F)(F)c1cccc(-c2cnc3ccc(NC4CCOCC4)nn23)c1 [Compound 8-33, N-(Tetrahydro-2H-pyran-4-yl)-3-(3-(trifluoromethyl)phenyl)imidazo[1,2-b]pyridazin-6-amine]
10 to 100 | CN(C)CC(=O)N1CCC(CNc2ccc3ncc(-c4cccc(OC(F)(F)F)c4)n3n2)CC1 [Compound 8-45, 2-(dimethylamino)-1-(4-(((3-(3-(trifluoromethoxy)phenyl)imidazo[1,2-b]pyridazin-6-yl)amino)methyl)piperidin-1-yl)ethanone]
1000 to 5000 | O=S1(=O)CCC(Nc2ccc3ncc(-c4cccc(OC(F)(F)F)c4)n3n2)CC1 [Compound 8-14, 4-((3-(3-(Trifluoromethoxy)phenyl)imidazo[1,2-b]pyridazin-6-yl)amino)tetrahydro-2H-thiopyran 1,1-dioxide]
10 to 100 | C[C@]1(O)CC[C@H](Nc2ccc3ncc(-c4cccc(OC(F)(F)F)c4)n3n2)CC1 [Compound 8-9, 1-Methyl-4-((3-(3-(trifluoromethoxy)phenyl)imidazo[1,2-b]pyridazin-6-yl)amino)-trans-cyclohexanol]
< 10 | N[C@H]1CC[C@H](Nc2ccc3ncc(-c4cccc(OC(F)(F)F)c4)n3n2)CC1 [Compound 8-8, (3-(3-(Trifluoromethoxy)phenyl)imidazo[1,2-b]pyridazin-6-yl)cyclohexane-trans-1,4-diamine]
100 to 1000 | CC(C)O[C@H]1CC[C@H](Nc2ccc3ncc(-c4cccc(OC(F)(F)F)c4)n3n2)CC1 [Compound 8-16, 4-(trans-Isopropoxycyclohexyl)-3-(3-(trifluoromethoxy)phenyl)imidazo[1,2-b]pyridazin-6-amine]
100 to 1000 | CO[C@H]1CC[C@H](Nc2ccn3ncc(-c4cccc(OC(F)(F)F)c4)c3n2)CC1 [Compound 8-49, 4-(trans-Methoxycyclohexyl)-3-(3-(trifluoromethoxy)phenyl)pyrazolo[1,5-a]pyrimidin-5-amine]
1000 to 5000 | FC(F)(F)Oc1cccc(-c2cnc3ccc(NCC4CCSCC4)nn23)c1 [Compound 8-18, N-((tetrahydro-2H-thiopyran-4-yl)methyl)-3-(3-(trifluoromethoxy)phenyl)imidazo[1,2-b]pyridazin-6-amine]
< 10 | CC(C)(O)[C@H]1CC[C@H](Nc2ccc3ncc(-c4cccc(OC(F)(F)F)c4)n3n2)CC1 [Compound 8-10]
< 10 | CC(C)(O)[C@H]1CC[C@H](Nc2ccc3ncc(-c4cccc(Cl)c4)n3n2)CC1 [Compound 8-37]
10 to 100 | CO[C@H]1CC[C@H](Nc2ccc3ncc(-c4cccc(Cl)c4)n3n2)CC1 [Compound 8-38, 3-(3-Chlorophenyl)-N-(4-trans-methoxycyclohexyl)imidazo[1,2-b]pyridazin-6-amine]
100 to 1000 | CC(C)(O)[C@H]1CC[C@H](Nc2ccn3ncc(-c4cccc(OC(F)(F)F)c4)c3n2)CC1 [Compound 8-47]
10 to 100 | CC(C)(O)CNc1ccc2ncc(-c3cccc(OC(F)(F)F)c3)n2n1 [Compound 8-6, 2-Methyl-1-((3-(3-(trifluoromethoxy)phenyl)imidazo[1,2-b]pyridazin-6-yl)amino)propan-2-ol]
1000 to 5000 | FC1(F)CCC(CNc2ccc3ncc(-c4cccc(OC(F)(F)F)c4)n3n2)CC1 [Compound 8-17, N-((4,4-difluorocyclohexyl)methyl)-3-(3-(trifluoromethoxy)phenyl)imidazo[1,2-b]pyridazin-6-amine]
100 to 1000 | CO[C@H]1CC[C@H](Nc2ccc3ncc(-c4cccc(C(F)(F)F)c4)n3n2)CC1 [Compound 8-32, 4-(trans-Methoxycyclohexyl)-3-(3-(trifluoromethyl)phenyl)imidazo[1,2-b]pyridazin-6-amine]
10 to 100 | OCCN1CCC(CNc2ccc3ncc(-c4cccc(OC(F)(F)F)c4)n3n2)CC1 [Compound 8-27, 2-(4-(((3-(3-(Trifluoromethoxy)phenyl)imidazo[1,2-b]pyridazin-6-yl)amino)methyl)piperidin-1-yl)ethanol]
